From patent US9833426B2, “Agent for preventing deterioration in vascular endothelial function or improving vascular endothelial function” (KYOWA HAKKO BIO CO., LTD., priority 2012, dated 2017)

Tests used:
[1] = test system: normal human umbilical vein endothelial cells (HUVEC); test: Nitrite (NO2) concentration in HUVEC culture supernatant by HPLC (NO production); assay type: cell-based; conditions: 48-hour culture
Protocol: A normal human umbilical vein endothelial cells (HUVEC) line available from Clonetics (SanDiego, Calif., USA) was used with EGM-2 Bullet Kit medium containing 2% FBS (Takara Bio Inc.). The cells were cultured at 37° C. in a 5% CO2 incubator, and used for experiments after 4 to 6 passages. Citrulline and serine, which were manufactured by Kyowa Hakko Bio, were used.
A cell suspension (0.45 mL) with the adjusted initial cell density to 1×10^5 cells/mL was inoculated in a 24-well plate (IWAKI). After 24-hour culture, the medium was replaced with a medium containing L-citrulline (final concentration 0.3 mM: low-dose citrulline group, or final concentration 3 mM: high-dose citrulline group), L-serine (final concentration 0.3 mM: serine group), or a mixture thereof (citrulline final concentration 0.3 mM and serine final concentration 0.3 mM: low-dose citrulline+serine group, or citrulline final concentration 3 mM and serine final concentration 0.3 mM: high-dose citrulline+serine group). In a control group, a medium to which only a solvent (PBS) was added was used. After 48-hour culture, the culture broth ([…]) was centrifuged at 12,000 rpm for 10 minutes, and the concentration of nitrite (NO2), which is a stable NO metabolite, in the culture supernatant was determined by HPLC (ENO-20, EICOM).

[2] = test system: mice in which chronic rheumatoid arthritis was induced; conditions: oral administration, mice with induced chronic rheumatoid arthritis; cited from earlier work
[3] = test system: normal rats and spontaneously hypertensive rats (SHR); conditions: intravenous acute administration, transient; cited from earlier work

Compound	Effect on NO production alone ([1]; citrulline 0.3 mM alone (low-dose citrulline group))	Effect on NO production alone ([1]; citrulline 3 mM alone (high-dose citrulline group))	Arthritis score [2]	Average blood pressure [3]	Peripheral vascular resistance [3]
NC(=O)NCCC[C@H](N)C(=O)O [citrulline, L-citrulline]	does not affect NO production alone	NO production was enhanced			
N[C@@H](CO)C(=O)O [serine, L-serine]			ameliorating the arthritis score	decreased	decreased in a transient manner
